The values that follow come from BindingDB's records for doi:10.1016/S0960-894X(96)00274-0 (1996).

The nature of experiment [1]: Compound was tested for Inhibition of [3H]-DPDPE (0.2 nM) binding to Opioid receptor from bovine striatal Membranes.
The nature of experiment [2]: Compound was tested for Inhibition of 9 (1 nM) binding to Opioid receptor delta 1 from bovine striatal Membranes.

Broadly, the IC50 is the midpoint of a concentration-inhibition curve. A low value points to inhibition by little substance. For `C=C(Cl)C(=O)N[C@@]12CCC(=O)[C@@H]3Oc4c(O)ccc5c4C31CCN(CC1CC1)C2C5` (stereo partly drawn) [1N-[4-cyclopropylmethyl-10-hydroxy-14-oxo-(13R,17S)-12-oxa-4-azapentacyclo[9.6.1.01,13.05,17.07,18]octadeca-7(18),8,10-trien-17-yl]-2-chloroacrylamide], the IC50 in experiment [1] was determined as 501 nM; in experiment [2], 177 nM.

With `C=C(Cl)C(=O)N[C@@H]1CCC2C3Cc4ccc(O)c5c4C2(CCN3CC2CC2)[C@H]1O5` (stereo partly drawn) [1N-[4-cyclopropylmethyl-10-hydroxy-(13R,14R)-12-oxa-4-azapentacyclo[9.6.1.01,13.05,17.07,18]octadeca-7(18),8,10-trien-14-yl]-2-chloroacrylamide], the IC50 in experiment [1] stood at 1.5 nM; in experiment [2] it was 0.53 nM.

On to `C=C(Cl)C(=O)N[C@@]12CCC(=O)[C@@H]3Oc4c(O)ccc5c4C31CCN(C)C2C5` (stereo partly drawn) [1N-[10-hydroxy-4-methyl-14-oxo-(13R,17S)-12-oxa-4-azapentacyclo[9.6.1.01,13.05,17.07,18]octadeca-7(18),8,10-trien-17-yl]-2-chloroacrylamide], for which the values for the 50% inhibitory concentration (IC50) in experiment [1] and in experiment [2] were 184 nM and 178 nM, respectively.

For `C=C(Cl)C(=O)N[C@@H]1CCC2C3Cc4ccc(O)c5c4C2(CCN3C)[C@H]1O5` (stereo partly drawn) [1N-[10-hydroxy-4-methyl-(13R,14R)-12-oxa-4-azapentacyclo[9.6.1.01,13.05,17.07,18]octadeca-7(18),8,10-trien-14-yl]-2-chloroacrylamide], the results for the IC50 in experiment [1] and in experiment [2] were 26 nM and 45 nM, respectively.
